Assay results from patent US6110494A, “Cisapride mini-tablet formulations” (Elan Corporation, plc, priority 1997, dated 2000).

Tests used:
[1] = extended release, viscous hydrophilic polymers; cited from earlier work
[2] = cited from earlier work
[3] = Solubility of cisapride and its salt

COc1cc(N)c(Cl)cc1C(=O)NC1CCN(CCCOc2ccc(F)cc2)CC1OC.O=C(O)C(O)C(O)C(=O)O (single isomer, unassigned; (+)) [(+)-cisapride-(L) tartrate]
dissolution rates [1]: equal dissolution rates

COc1cc(N)c(Cl)cc1C(=O)NC1CCN(CCCOc2ccc(F)cc2)CC1OC (stereo not drawn) [Cisapride]
effect of food on absorption ([2]; food): enhancing effect on the absorption | half life ([2]; in vivo): relatively short half life | absorption in distal regions of the gastrointestinal tract ([2]; more distal regions): significant decrease in absorption | solubilisation at pH 6.8 [3]: SLS (sodium lauryl sulphate) was required to solubilise

COc1cc(N)c(Cl)cc1C(=O)NC1CCN(CCCOc2ccc(F)cc2)CC1OC (single isomer, unassigned; (-)) [(-)-cisapride-(L)tartrate]
dissolution rates [1]: equal dissolution rates
